Drawing on patent US6492366B1, “Cyano-indole serotonin-reuptake inhibitor compound” (Les Laboratoires Servier, priority 1999, dated 2002), this text covers Ki and ED50 for two compounds.

The target of experiment [1] is T1, serotonin-reuptake sites (Rattus norvegicus, UniProt P31652).
T1 construct: The membranes are prepared from rat frontal cortex; from tissue; host or cells: rat frontal cortex membranes
As to the kind of experiment: Determination of affinity for serotonin-reuptake sites in the rat ([3H]-paroxetine competition). The experiment is classed as binding. The following applies: rat frontal cortex membranes, 0.25 nM [3H]-paroxetine, 2 hours at 25° C. The method, then:
Determination of Affinity for Serotonin-reuptake Sites in the Rat The affinity of the compounds of the invention was determined by competition experiments with [^3H]-paroxetine. The membranes are prepared from rat frontal cortex and are incubated in triplicate with 0.25 nM [^3H]-paroxetine and the cold ligand in a final volume of 0.4 ml, for 2 hours at 25° C. The incubation buffer contains 50 mM TRIS-HCl (pH 7.4), 120 mM NaCl and 5 mM KCl. Non-specific binding is determined using 10 μM citalopram. At the end of the incubation, the mixture is filtered through filters and washed three times with 5 ml of cooled buffer. The radioactivity retained on the filters is determined by liquid scintillation counting. The binding isotherms are analysed by non-linear regression to determine the IC50 values. The latter are converted into a dissociation constant (Ki) using the Cheng-Prusoff equation: Ki=IC50/[…] wherein L is the concentration of [^3H]-paroxetine and Kd is the dissociation constant (0.13 nM).

Experiment [2] deals with spontaneous marble-burying behaviour of mice. As to the kind of experiment: Marble-burying test in mice. In kind it is in vivo. Particulars: Mus musculus, 0.5 h; male NMRI mice, 24 marbles, 30 minutes' free exploration; read-out: ED50 (Efficacy dose 50), inhibition of marble-burying. From the text:
Marble-burying Test in Mice This test enables evaluation of the capacity of pharmacological agents to inhibit the spontaneous marble-burying behaviour of mice, the inhibition being predictive of antidepressant and/or anti-impulsive action. Male mice of the NMRI strain weighing from 20 to 25 g on the day of the experiment are placed individually in Macrolon boxes (30×18×19 cm) containing 5 cm of sawdust and covered with a perforated plexiglass plate. Twenty four “tiger's eye” glass marbles are evenly distributed on the sawdust at the periphery of the box. At the end of 30 minutes' free exploration, the animals are removed from the box and the number of buried marbles is counted.

Molecules are shown by their SMILES.

T1 sequence (P31652 whole entry): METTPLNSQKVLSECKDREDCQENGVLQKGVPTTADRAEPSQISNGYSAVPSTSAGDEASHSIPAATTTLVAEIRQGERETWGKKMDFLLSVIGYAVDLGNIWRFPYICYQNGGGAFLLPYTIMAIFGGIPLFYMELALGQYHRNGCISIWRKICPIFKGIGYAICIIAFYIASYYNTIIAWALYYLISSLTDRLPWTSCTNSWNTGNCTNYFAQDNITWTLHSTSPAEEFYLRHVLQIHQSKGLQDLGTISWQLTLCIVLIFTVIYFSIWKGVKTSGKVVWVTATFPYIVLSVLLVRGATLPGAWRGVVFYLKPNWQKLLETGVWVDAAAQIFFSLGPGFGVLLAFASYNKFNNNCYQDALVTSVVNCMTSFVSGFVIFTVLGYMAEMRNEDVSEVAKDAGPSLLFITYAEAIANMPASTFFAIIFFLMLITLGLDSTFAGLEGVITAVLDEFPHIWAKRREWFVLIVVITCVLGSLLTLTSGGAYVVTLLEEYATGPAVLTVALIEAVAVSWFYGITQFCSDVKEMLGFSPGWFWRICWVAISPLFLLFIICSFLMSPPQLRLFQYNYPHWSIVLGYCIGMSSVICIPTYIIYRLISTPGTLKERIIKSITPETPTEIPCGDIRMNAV

As for `Cl.N#Cc1ccc2[nH]cc(CC3CCN(CCc4cc5c(cc4Cl)NC(=O)C5)C3)c2c1` (stereo not drawn) [Example 6, 3-({1-[2-(6-Chloro-2-oxo-2,3-dihydro-1H-indol-5-yl)ethyl]-3-pyrrolidinyl}methyl)-1H-indole-5-carbonitrile Hydrochloride], the Ki in experiment [1] is 0.4 nM. The 50% effective dose (ED50) in experiment [2] is 3.8 mg/kg.

Take `Cl.N#Cc1ccc2[nH]cc(CC3CCN(CCc4ccc5c(c4)CC(=O)N5)C3)c2c1` (stereo not drawn) [Example 7, 3-({1-[2-(2-Oxo-2,3-dihydro-1H-indol-5-yl)ethyl]-3-pyrrolidinyl}-methyl)-1H-indole-5-carbonitrile Hydrochloride]: the median effective dose (ED50) in experiment [2] stood at 1.5 mg/kg.
